Drawing on a melting point compilation (Tetko et al.; mined from patent text by program, amines drawn as free bases though some values may be those of a salt), this text covers melting point for 87 compounds.

What is called melting point is the temperature, or range, at which the solid turns liquid.

Each structure is given as a SMILES string.

Compound `CC(C)(C(=O)c1ccc(F)cc1)N1CCOCC1` came in with a melting point of 63 to 66 °C. Under `Cc1n[nH]c(=O)n1N=Cc1cccnc1` stands 208 to 210 °C; under `CCOC(=O)c1cnn(-c2ccc(Cl)cc2C(F)(F)F)c1N`, 114 to 116 °C. As for `O=c1oc(-c2ccccc2)cc(O)c1C(SCc1ccccc1)c1ccccc1` (configuration not stated), the figure is 189 to 191 °C; as for `CC(=O)N1CCc2ccc(SCc3ccccc3)c([N+](=O)[O-])c2C1`, 94 to 95 °C. As for `CC(=N)Nc1ccc(NC(C)=O)cc1`, the figure is 131 to 134 °C; as for `CCOC(=O)c1cn(Cc2ccccc2)nc1OCc1ccc(OCc2nc(-c3ccco3)oc2C)c(OC)c1`, 117 to 118 °C; as for `O=C(O)Cn1c(=O)c(=O)[nH]c2ccc3ccc(-n4ccc(CN5CCc6ccccc6C5)c4)cc3c21`, over 250 °C.

Regarding `CCOC(=O)Nc1ccc(C(=O)OCC)nc1`, the melting point lay in the range of 177 to 178 °C. As for `CSc1nc(-c2ccccn2)n(-c2ccc(C)c(C)c2)c(=O)c1C#N`, the figure is 218 to 223 °C; as for `Cc1oc(-c2ccccc2)nc1COc1cccc(CO)c1`, 101 to 102 °C. As for `CC(=O)N1N=C(c2ccc([N+](=O)[O-])c(C)c2)c2cc3c(cc2CC1C)OCO3` (configuration not stated), the figure is 123 to 127 °C. Under `O=C(NCCCn1cncn1)Nc1ccc(Cl)cc1` stands 137 to 139 °C; under `COc1ccc2c(c1)C(c1ccc(N)cc1)=Nn1c(nc(C)c1C)C2`, 280 °C; under `O=C(Nc1nccs1)c1c(C(O)CO)nc2c(C(F)(F)F)cccc2c1O` (configuration not stated), 255 °C. `COc1ccc2cc(Oc3cnc(N)nc3N)c(C(C)C)cc2c1` showed a melting point of 170 to 172 °C. As for `COc1cccc2c1CCNC2=S`, the melting point was 44 to 46 °C.

Take `COc1ccccc1NC(=O)Nc1nc2nc(NCCCN3CCN(C)CC3)ncc2cc1-c1c(Cl)cccc1Cl`: the melting point lay within 152 to 154 °C.

Compound `CC(=O)Oc1cc2c(cc1F)C1(OC(=O)c3c1ccc(N)c3N)c1cc(F)c(OC(C)=O)cc1O2` came in with a melting point of 135 °C. As for `CC(C)CCC(Sc1ccccc1)c1c(O)cc(-c2ccccc2)oc1=O` (configuration not stated), the figure is 144 to 145 °C; as for `NC(=O)CNC(=O)c1ccc(-c2cccc3cc(Cc4cccc(C(F)(F)F)c4)sc23)nc1`, 191 to 192 °C; as for `O=C(NCc1ccn(-c2cc3nc(C(=O)O)c(=O)[nH]c3cc2C(F)(F)F)c1)Nc1ccc(F)cc1`, 168 to 170 °C.

Regarding `Nc1nnc2ccccc2n1`, the melting point was 208 to 210 °C. Consider `NS(=O)(=O)c1ccc(-c2noc(-c3ncn4c(C(F)(F)F)cc(-c5ccc(C(F)(F)F)cc5)nc34)n2)s1`, for which the melting point was 295 °C. Under `O=Cc1c(O)cccc1OCc1ccc(C(=O)O)cc1` stands 239 to 240 °C. Under `CC(C)(C)OC(=O)N1CCNC(C(=O)O)C1` (configuration not stated) stands 226 to 229 °C; under `CCOC(=O)c1c2n(c3c(F)c(Cl)ccc3c1=O)CCS2`, 216 °C; under `C=CC(=O)OC(C#N)Cc1cccc(Cl)c1` (configuration not stated), 100 to 101 °C. Under `CC(C)(C)OC(=O)Nc1ccsc1C(=O)O` stands 168 to 169 °C; under `CC(=O)CC(=O)OC(c1ccccc1)c1ccccc1`, 44 to 54 °C; under `COc1cccc(C=CCN2CCc3nc(N)sc3CC2)c1OC`, 87 °C.

`FC(F)(F)c1cccc(-c2cnn(-c3cccnc3)c2)n1` displayed a melting point of 130 to 131 °C.

In the case of `O=C(Nc1nnco1)C(c1ccccc1)c1ccccc1`, the melting point was 131 to 132 °C. Under `COc1cccc(C(=O)NN=C2CCc3ccccc3C2)c1C` stands 138 °C; under `CCC(COCc1ccc(C#N)cc1)n1cnc2c(N)nc3ccccc3c21` (configuration not stated), 160 to 161 °C; under `Clc1nc(OC(Cl)(Cl)Cl)cc(C(Cl)(Cl)Cl)n1`, 67 to 69 °C. For the compound `Cn1c(C(F)(F)F)nn(-c2cc(F)c(C#N)cc2Cl)c1=O`, the melting point came out at 105 °C.

Take `Fc1cccc(N=C2SCCN2C(=S)Nc2cccc(F)c2)c1`: the melting point was in the range of 108 to 109 °C. Under `NC(=O)c1nc(Cl)sc1Cl` stands 153 °C; under `O=C1CCC(N2C(=O)c3cccc(OCc4ccc5ccccc5n4)c3C2=O)C(=O)N1` (configuration not stated), 254 to 256 °C. Compound `COc1cc(C=CC(=O)c2ccccc2F)cc(OC)c1` had a melting point of 71.6 to 72.5 °C. As for `CCCc1cnc(NC(=O)C2c3ccccc3Oc3ccccc32)o1`, the figure is 203 to 205 °C. Under `CCOC(=O)C(=CNc1ccc(F)c(N2CCN(C(C)=O)CC2)n1)C(=O)OCC` stands 164 to 165 °C; under `CCCCCCCCCCCCc1c[nH]c(C=O)c1`, 64 to 65 °C; under `CNC(=O)c1ccc(-c2ccc3nnn(Cc4ccc5ncccc5c4)c3n2)cc1Cl`, 227 to 230 °C.

On to `COC(=O)c1ccc(COc2ccc(-c3ncccc3S(=O)(=O)N(C(=O)OCC(C)C)c3ncc(C)nc3OC)cc2)cc1`, for which the melting point is 134 to 135 °C. Compound `N#CC1=CCC23OCOC2=C1c1c(C#N)cccc1OCO3` (configuration not stated) had a melting point of 213 to 215 °C. As for `Cn1nc(N)nc1NCCCOc1cccc(CN2CCCC2)c1`, the figure is 95 to 95.5 °C; as for `COc1nc(S(C)(=O)=O)cnc1NS(=O)(=O)c1cccc(Cl)c1Cl`, 237 to 238 °C.

`CNC(=O)C(=NOC)c1cccc(Cl)c1COc1cc(C(F)(F)F)nc(OC(C)C)n1` came in with a melting point of 116 to 118 °C.

In turn, `COc1ccc(CSc2nc(-c3ccccc3)n(Cc3cc4c(cc3Cl)OCO4)c2C=O)cc1` registered a melting point of 120 °C. Under `COc1ccc(C(=N)NS(=O)(=O)C=Cc2ccc(Cl)c(Cl)c2)cc1OC` stands 205 to 210 °C; under `CCCCC(=O)C(Cc1ccc(C(=O)OC)cc1)c1ccccc1` (configuration not stated), 58 °C. Under `c1ccc(-c2nc3cc(-c4nc(COc5ccc(CCCn6ccnc6)cc5)co4)ccc3o2)cc1` stands 166 to 167 °C.

Compound `Nc1cccc(S(=O)(=O)N2CC=CC2)c1` returned a melting point of 187 to 188 °C. As for `Nc1nc2c(sc(=O)n2Cc2ccc(Cl)cc2)c(=O)[nH]1`, the figure is over 320 °C; as for `COC(=O)N(C)C(=O)N(SC(Cl)Cl)c1ccccc1`, 77 to 78 °C.

Turning to `CCCN(C(=O)COc1c(OC)cccc1OC)C1CCc2c(ccc(O)c2O)C1` (configuration not stated), the melting point is 157 to 158 °C. Under `COCCCNC(=O)c1[nH]c(C)c(-c2nc3ccc(C(=O)c4ccccc4)cc3[nH]2)c1C` stands 256 to 258 °C; under `CC(C)(C)OC(=O)N1CCc2c(n(CC(=O)Nc3ccccc3)c3cc(Cl)c(Cl)cc23)CC1`, 172 °C; under `OCc1cn(Cc2ccc(OCc3ccccc3)cc2)nc1-c1ccccc1`, 88 to 89 °C. As for `c1ccc2c(c1)C(=NOCCN1CCCCC1)c1ccccc1C1CC21` (configuration not stated), the figure is 75 to 76 °C. Under `O=C(NCC1CCCC1)NC1CCN(CC23CC(c4ccccc42)c2ccccc23)CC1` stands 197 to 198 °C; under `O=C(CCc1ccccc1)N[C@H]1C[C@H](C(=O)O)Nc2cc(Cl)cc(Cl)c21` (relative stereo), 188 °C. `CCOC(=O)CCCOc1cccc(Oc2nc(OC)cc(OC)n2)c1C=O`: the melting point was found to be 96 °C. As for `CCOc1ccc2c(c1)c(CC(C)NC(=O)OC(C)(C)C)c1n2CCC1` (configuration not stated), the figure is 89 to 90 °C.

In the case of `COc1ccc(N(CCCCCO)S(=O)(=O)c2c(F)c(F)c(F)c(F)c2F)cc1`, the melting point is 96 to 97 °C. Under `COC(=O)c1ccc(C)c(-n2c(C)cc(OCc3ccccc3CNC(=O)Nc3cc(C(C)(C)C)nn3-c3ccc(O)c(Cl)c3)c(Cl)c2=O)c1` stands 185 to 186 °C. As for `CCc1nc(/C=C/c2cn(-c3ccccc3)nc2OCc2ccc(OCc3nc(-c4cccc(C(=O)O)c4)oc3C)c(OC)c2)cs1`, the figure is 190 to 191 °C; as for `O=C1NCCc2ccccc2C1c1ccccc1` (configuration not stated), 95 to 96 °C. As for `CS(=O)(=O)c1ccc(C(Cc2cccc(F)c2)C(=O)Nc2cnc(CO)cn2)cc1` (configuration not stated), the figure is 82.8 to 98.7 °C; as for `Cn1cc(Br)cc(Nc2ccc(C3CNC3)cn2)c1=O`, 123 to 124 °C.

With `Cn1cc(-c2cc3nccnc3[nH]2)c2cc(O)ccc21`, the melting point lay within 289 to 290 °C. Under `O=C(O)CCCCCCCCCC=Cc1ccco1` stands 38 to 39 °C.

Take `O=C(O)CCc1ccc(OCCn2c(=O)sc3cc(Cc4ccccc4)ccc32)cc1`: the melting point fell in the range of 158 to 163 °C. In turn, `O=C(ON=C1C(=O)c2ccccc2-c2ccccc21)c1ccccc1` had a melting point of 148 to 149 °C.

With `O=C(O)c1cc(=O)c(OCc2ccccc2)c(-c2ccccc2)o1`, the melting point is 161 to 170 °C.

With `COc1cc(C=CC(=O)Nc2c(-c3ccccc3Cl)c3cc(C)c(C)cc3n(C)c2=O)cc(OC)c1OC(C)=O`, the melting point was 259 to 260 °C. On to `C=C(C)OC1OC(n2cc(C)c(=O)n(CC(=O)c3ccccc3)c2=O)CC1OC(=O)c1ccccc1` (configuration not stated), for which the melting point fell in the range of 112 to 113 °C. `CC(=O)Nn1c(=S)[nH]c2cc(C(F)(F)F)ccc21`: the melting point is 294 to 295 °C. Under `COc1cc2c(Nc3ccc(Sc4nccn4C)c(Cl)c3)c(C#N)cnc2cc1-c1csc(CN2CCOCC2)c1` stands 238 to 240 °C. Compound `CCOC(=O)c1nc2oc(C)c(C)c2c(=O)[nH]1` came in with a melting point of 180 to 182 °C.

`CNC(=O)SC(C(=O)O)c1ccccc1` (configuration not stated) came in with a melting point of 128 to 129 °C. As for `COc1ccc(C2COC(=O)C2CSC2CCCCC2)cc1` (configuration not stated), the figure is 50 to 51 °C. The compound `Nc1ccc2ccc(-c3ccc(Cl)c(Cl)c3)nc2n1` returned a melting point of 210 °C. As for `Cn1c(=O)c2c(nc(/C=C/c3ccc4c(c3)OCO4)n2C)n(C)c1=O`, the figure is over 300 °C. Under `CN1CCC2(CC1)C(=O)N(C)C(=O)N2c1ccccc1` stands 132 to 134 °C.
